This data set concerns MEF cells. Description: MEF cell viability, MTT Cell Proliferation Assay. Format: cell-based, mouse. Particulars: MEF cells treated with s^4U (0-1 mM) for 1 hour; MTT assay in triplicate. Here is the method:
FIG. 9A depicts exemplary MEF cell viability assays with increasing concentrations of s^4U (0, 50, 100, 500 and 1000 μM). FIG. 9B depicts exemplary MEF cell viability assays with increasing concentrations of Triton-X-100 (0, 0.5, 1, and 2%). MEF cells were plated at 10^6 cells/ml and allowed to rest overnight. An MTT assay (ATTC MTT Cell Proliferation Assay kit) was performed in triplicate after indicated treatment for 1 h. After treatment and lysis, absorbance at 570 nm was measured. FIG. 9C depicts an exemplary MA-plot of expression levels in RNA-seq in MEF cells treated with 1 mM s^4U for 1 hour, compared to cells without s^4U treatment. […] Each condition was tested with two replicates. Conditions are: ++, with s^4U treatment and chemical treatment; +−, with s^4U treatment but no chemical treatment; −+, no s^4U treatment but with chemical treatment; −−, neither s^4U treatment nor chemical treatment.
MEF cells were grown at 37° C. in DMEM containing 10% FBS and 1% P/S. Cells were plated at 10^6 cells/mL in a 96-well microtiter plate and allowed to recover overnight. Cells were then treated in triplicate with increasing concentrations of s^4U (0-1 mM) for 1 hour, and the ATCC MTT Cell Proliferation Assay kit was used according to manufacturer's instructions to assess cell viability.

The structures appear in SMILES notation.

As to `O=c1[nH]c(=S)ccn1[C@@H]1O[C@H](CO)[C@@H](O)[C@H]1O` [s^4U, 4-thiouridine], the “s^4U toxicity (cell viability, absorbance at 570 nm)” value is “no s^4U toxicity was observed”.

These data come from patent publication US11098342B2, “Time lapse sequencing: a convertible-nucleoside approach to enrichment-free analysis of RNA dynamics” (Yale University, priority 2017, dated 2021).
